Test results from US8283358B2, “N-sulfonamido polycyclic pyrazolyl compounds” (Elan Pharmaceuticals, Inc., priority 2008, dated 2012).
Like-named read-outs stand apart in the source and are kept apart here.

Target: T1, gamma-secretase (partially purified extract of IMR-32 cell membranes; substrate MBP-C125 Swe fusion protein, cleavage at the Aβ40 site) (Homo sapiens, UniProt P49768)
T1 construct: a partially purified extract of IMR-32 cell membranes as the gamma-secretase enzyme preparation; endogenous in cells; host or cells: IMR-32 cell membranes, partially purified extract
Test: Gamma-secretase APP enzyme assay (Example A)
Type: biochemical
Conditions: assay described in Example A, read-out: γAPP IC50
Description: The gamma-secretase APP enzyme assay was designed to measure the specific proteolytic cleavage of an APP substrate (MBP-C125 Swe fusion protein) at the Aβ40 site. […] This assay involved two steps beginning with the enzymatic reaction generating a cleavage product that was captured with an immobilized antibody specific for the neo-epitope Aβ40 site. The captured cleavage product was then detected in a sandwich ELISA assay with a biotinylated reporter antibody that is specific to Aβ(17-28). Streptavidin-linked alkaline phosphatase was then added that would generate a fluorescent signal proportional to the amount of cleavage product.
This warmed solution of BigCHAPS (N,N-Bis(3-D-gluconamidopropyl)cholamide) detergent was used to dissolve Brain Extract Type-V (lipid containing a minimum of 40% phosphatidylethanolamine) from Sigma (St. Louis, Mo.) to a concentration of 8 mg/ml. This solution containing BigCHAPS and lipid at 8 mg/ml is then diluted to 0.53 mg/ml lipid with a pre-warmed solution of Hepes and sodium chloride.
Gamma-secretase was then added to a 96-well micro-titre plate and then incubated with various concentrations of inhibitor for 30 minutes at 37° C. MBPC125 substrate was then added to initiate the reaction that would run for two hours at 37° C. The reaction was quenched with the addition of SDS to a final concentration of 0.1% and then 100 μl of the reaction mixture was transferred to a capture ELISA plate and incubated overnight at 4° C. Detection of the cleavage product was performed using a standard sandwich ELISA assay and quantified using a six point standard curve.

| IC50 (class symbols) | IC50 (numeric bounds given instead of class symbols) | Structure (SMILES) |
| --- | --- | --- |
| 100 to 499 nM | – | O=S(=O)(c1ccc(C(F)(F)F)cc1)N1C2C=C(c3ccc(F)cc3)C1c1cn[nH]c1C2 (racemic) [compound 59] |
| < 100 nM | – | O=S(=O)(c1ccc(C(F)(F)F)cc1)N1C2c3ccccc3C1C(F)(F)c1[nH]ncc12 (racemic) [compound 74] |
| 500 to 999 nM | – | Cc1nc(C2CC3Cc4[nH]ncc4C(C2)N3S(=O)(=O)c2ccc(C(F)(F)F)cc2)n(C)n1 (racemic) [compound 80] |
| < 100 nM | – | O=S(=O)(c1ccc(C(F)(F)F)cc1)N1C2Cc3[nH]ncc3C1c1cccc(F)c12 (racemic) [compound 97] |
| – | > 100 nM | O=c1oc2cc3c(cc2o1)C1c2cn[nH]c2CC3N1S(=O)(=O)c1ccc(C(F)(F)F)cc1 (racemic) [compound 109] |
| > 1000 nM | – | O=S(=O)(c1ccc(C(F)(F)F)cc1)N1C2Cc3[nH]ncc3C1CC(c1nnn[nH]1)C2 (racemic) [compound 126] |
| < 100 nM | – | O=C(O)COCCNc1ccc(C2CC3Cc4[nH]ncc4C(C2)N3S(=O)(=O)c2ccc(C(F)(F)F)cc2)cc1 (racemic) [compound 145] |
| 100 to 499 nM | – | O=S(=O)(c1ccc(C(F)(F)F)cc1)N1C2Cc3[nH]ncc3C1CC(c1ccc(-n3cncn3)cc1)C2 (racemic) [compound 147] |
| < 100 nM | – | Cc1cc(F)cc2c1C1c3c[nH]nc3CC2N1S(=O)(=O)c1ccc(C(F)(F)F)nc1 (racemic) [compound 151] |
| < 100 nM | – | CC(=O)Nc1ccc(C2CC3Cc4[nH]ncc4C(C2)N3S(=O)(=O)c2ccc(C(F)(F)F)cc2)cc1 (racemic) [compound 152] |
| < 100 nM | – | O=C1CCN1c1ccc(C2CC3Cc4[nH]ncc4C(C2)N3S(=O)(=O)c2ccc(C(F)(F)F)cc2)cc1 (racemic) [compound 153] |
| 100 to 499 nM | – | CC(=O)c1ccc(C2CC3Cc4[nH]ncc4C(C2)N3S(=O)(=O)c2ccc(C(F)(F)F)cc2)cc1 (racemic) [compound 154] |
| < 100 nM | – | O=S(=O)(c1ccc(C(F)(F)F)cc1)N1C2Cc3[nH]ncc3C1c1cc(C(F)(F)F)ccc12 (racemic) [compound 155] |
| < 100 nM | – | O=S(=O)(c1ccc(C(F)(F)F)cc1)N1C2Cc3[nH]ncc3C1c1cccc(-c3ccc(F)cc3)c1C2 (racemic) [compound 162] |

Second part, the compound before the results:

| Structure (SMILES) | IC50 (class symbols) | IC50 (numeric bounds given instead of class symbols) |
| --- | --- | --- |
| O=S(=O)(c1ccc(C(F)(F)F)cc1)N1C2Cc3[nH]ncc3C1c1ccccc12 (racemic) [compound 52] | < 100 nM | – |
| O=S(=O)(c1ccc(C(F)(F)F)cc1)N1C2Cc3[nH]ncc3C1c1ccccc12 (racemic) [compound 73] | < 100 nM | – |
| Cc1cc(C2CC3Cc4[nH]ncc4C(C2)N3S(=O)(=O)c2ccc(Cl)cc2)on1 (racemic) [compound 76] | < 100 nM | – |
| Cc1nc(C2CC3Cc4[nH]ncc4C(C2)N3S(=O)(=O)c2ccc(C(F)(F)F)cc2)n[nH]1 (racemic) [compound 85] | > 1000 nM | – |
| O=S(=O)(c1ccc(C(F)(F)F)cc1)N1C2Cc3[nH]ncc3C1c1cc3c(cc12)OCO3 (racemic) [compound 91] | < 100 nM | – |
| O=S(=O)(c1ccc(Cl)cc1)N1C2Cc3[nH]ncc3C1CC(c1c[nH]nn1)C2 (racemic) [compound 93] | < 100 nM | – |
| O=S(=O)(c1ccc(C(F)(F)F)nc1)N1C2Cc3n[nH]cc3C1c1cc(F)c(F)cc12 (racemic) [compound 105] | < 100 nM | – |
| Cn1nncc1C1CC2Cc3[nH]ncc3C(C1)N2S(=O)(=O)c1ccc(Cl)cc1 (racemic) [compound 136] | < 100 nM | – |
| O=C1COCCN1c1ccc(C2CC3Cc4[nH]ncc4C(C2)N3S(=O)(=O)c2ccc(C(F)(F)F)cc2)cc1 (racemic) [compound 143] | 500 to 999 nM | – |
| O=S(=O)(c1ccc(C(F)(F)F)cc1)N1C2Cc3[nH]ncc3C1c1ccc(C(F)(F)F)cc12 (racemic) [compound 156] | < 100 nM | – |
| O=S(=O)(c1ccc(C(F)(F)F)nc1)N1C2c3cc(F)c(F)cc3C1C(F)(F)c1[nH]ncc12 (racemic) [compound 157] | < 100 nM | – |
| O=S(=O)(c1ccc(C(F)(F)F)cc1)N1C2Cc3[nH]ncc3C1Cc1ccccc12 (racemic) [compound 163] | < 100 nM | – |
